According to patent US20260262643A1, “HERBICIDAL BENZOXAZINES” (FMC CORPORATION, priority 2022, published 2026):

What was measured:
barnyardgrass [1] = assay: Test D flooded paddy test; type: in vivo, Echinochloa crus-galli; settings: 250 g ai/ha, applied to paddy water, visual rating after 13 to 14 days, scale 0 to 100 (0 no effect, 100 complete control)
How it was run: (§1)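 Rating scale 0–100 (0 no effect, 100 complete control), visual, versus controls. Readout at 13–14 days after in-water application to 2-leaf plants in pots flooded 3 cm deep.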

oat, wild [2] = assay: Test C postemergence; type: in vivo, Avena fatua; settings: 10 days, 0 to 100 scale (0 no effect, 100 complete control)
How it was run: (§2)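 Pre: seeds in loam/sand, directed soil spray. Post: 1–2 leaf plants, 2–10 cm. Cmpd in non-phytotoxic solvent + surfactant. Greenhouse 10 d; visual rating vs untreated, 0 = none, 100 = complete control.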

oat, wild [3] = assay: Test C preemergence; type: in vivo, Avena fatua
How it was run: as §2

wheat [4] = assay: Test C preemergence; type: in vivo, Triticum aestivum
How it was run: as §2

barnyardgrass [5] = assay: Test C preemergence; type: in vivo, Echinochloa crusgalli
How it was run: as §2

kochia [6] = assay: Test C preemergence; type: in vivo, Bassia scoparia
How it was run: as §2

kochia [7] = assay: Test C postemergence; type: in vivo, Bassia scoparia; settings: 10 days, 0 to 100 scale (0 no effect, 100 complete control)
How it was run: as §2

green foxtail [8] = assay: Test C preemergence; type: in vivo, Setaria viridis
How it was run: as §2

wheat [9] = assay: Test C postemergence; type: in vivo, Triticum aestivum; settings: 10 days, 0 to 100 scale (0 no effect, 100 complete control)
How it was run: as §2

corn [10] = assay: Test C postemergence; type: in vivo, Zea mays; settings: 10 days, 0 to 100 scale (0 no effect, 100 complete control)
How it was run: as §2

ryegrass, Italian [11] = assay: Test C postemergence; type: in vivo, Lolium multiflorum; settings: 10 days, 0 to 100 scale (0 no effect, 100 complete control)
How it was run: as §2

ducksalad = assay: Test D flooded paddy test; type: in vivo, Heteranthera limosa; settings: 250 g ai/ha, applied to paddy water, visual rating after 13 to 14 days, scale 0 to 100 (0 no effect, 100 complete control)
How it was run: as §1

sedge, umbrella = assay: Test D flooded paddy test; type: in vivo, Cyperus difformis; settings: 250 g ai/ha, applied to paddy water, visual rating after 13 to 14 days, scale 0 to 100 (0 no effect, 100 complete control)
How it was run: as §1

ryegrass, Italian [12] = assay: Test C preemergence; type: in vivo, Lolium multiflorum
How it was run: as §2

barnyardgrass [13] = assay: Test C postemergence; type: in vivo, Echinochloa crusgalli; settings: 10 days, 0 to 100 scale (0 no effect, 100 complete control)
How it was run: as §2

soybean [14] = assay: Test C preemergence; type: in vivo, Glycine max
How it was run: as §2

blackgrass [15] = assay: Test C postemergence; type: in vivo, Alopecurus myosuroides; settings: 10 days, 0 to 100 scale (0 no effect, 100 complete control)
How it was run: as §2

ragweed [16] = assay: Test C preemergence; type: in vivo, Ambrosia artemisiifolia
How it was run: as §2

pigweed, palmer [17] = assay: Test C postemergence; type: in vivo, Amaranthus palmeri; settings: 10 days, 0 to 100 scale (0 no effect, 100 complete control)
How it was run: as §2

green foxtail [18] = assay: Test C postemergence; type: in vivo, Setaria viridis; settings: 10 days, 0 to 100 scale (0 no effect, 100 complete control)
How it was run: as §2

blackgrass [19] = assay: Test C preemergence; type: in vivo, Alopecurus myosuroides
How it was run: as §2

horseweed = assay: Test C postemergence; type: in vivo, Erigeron canadensis; settings: 10 days, 0 to 100 scale (0 no effect, 100 complete control)
How it was run: as §2

pigweed, palmer [20] = assay: Test C preemergence; type: in vivo, Amaranthus palmeri
How it was run: as §2

rice = assay: Test D flooded paddy test; type: in vivo, Oryza sativa; settings: 250 g ai/ha, applied to paddy water, visual rating after 13 to 14 days, scale 0 to 100 (0 no effect, 100 complete control)
How it was run: as §1

soybean [21] = assay: Test C postemergence; type: in vivo, Glycine max; settings: 10 days, 0 to 100 scale (0 no effect, 100 complete control)
How it was run: as §2

corn [22] = assay: Test C preemergence; type: in vivo, Zea mays
How it was run: as §2

galium = assay: Test C postemergence; type: in vivo, Galium aparine; settings: 10 days, 0 to 100 scale (0 no effect, 100 complete control)
How it was run: as §2

ragweed [23] = assay: Test C postemergence; type: in vivo, Ambrosia artemisiifolia; settings: 10 days, 0 to 100 scale (0 no effect, 100 complete control)
How it was run: as §2

[24] = 500 g ai/ha, preemergence, 0 to 100 scale (0 no effect, 100 complete control)
[25] = Preemergence, 125 g ai/ha, 0 to 100 scale, 0 no effect, 100 complete control

C[C@H]1CN(C(=O)c2cccc(-n3cnc(C4CC4)n3)c2)c2cccc(Cl)c2O1 [Compound 325]
Plant response rating, Barnyardgrass (Flood) (barnyardgrass [1]): 0
Plant response rating, Oat, Wild (oat, wild [2]; 500 g ai/ha, postemergence): 70
Plant response rating, Oat, Wild (oat, wild [2]; Postemergence, 125 g ai/ha): 10
Oat, Wild plant response rating (oat, wild [3]; [24]): 90
Plant response rating, Oat, Wild (oat, wild [3]; [25]): 60
Wheat plant response rating (wheat [4]; [24]): 30
Plant response rating, Wheat (wheat [4]; [25]): 10
Barnyardgrass plant response rating (barnyardgrass [5]; [24]): 100
Plant response rating, Barnyardgrass (barnyardgrass [5]; [25]): 40
Kochia plant response rating (kochia [6]; [24]): 90
Plant response rating, Kochia (kochia [6]; [25]): 40
Plant response rating, Kochia (kochia [7]; 500 g ai/ha, postemergence): 90
Plant response rating, Kochia (kochia [7]; Postemergence, 125 g ai/ha): 90
Foxtail, Green plant response rating (green foxtail [8]; [24]): 100
Plant response rating, Foxtail, Green (green foxtail [8]; [25]): 100
Plant response rating, Wheat (wheat [9]; 500 g ai/ha, postemergence): 60
Plant response rating, Wheat (wheat [9]; Postemergence, 125 g ai/ha): 20
Plant response rating, Corn (corn [10]; 500 g ai/ha, postemergence): 50
Plant response rating, Corn (corn [10]; Postemergence, 125 g ai/ha): 30
Plant response rating, Ryegrass, Italian (ryegrass, Italian [11]; 500 g ai/ha, postemergence): 80
Plant response rating, Ryegrass, Italian (ryegrass, Italian [11]; Postemergence, 125 g ai/ha): 30
Plant response rating, Ducksalad (Flood) (ducksalad): 35
Plant response rating, Sedge, Umbrella (Flood) (sedge, umbrella): 75
Ryegrass, Italian plant response rating (ryegrass, Italian [12]; [24]): 90
Plant response rating, Ryegrass, Italian (ryegrass, Italian [12]; [25]): 60
Plant response rating, Barnyardgrass (barnyardgrass [13]; 500 g ai/ha, postemergence): 80
Plant response rating, Barnyardgrass (barnyardgrass [13]; Postemergence, 125 g ai/ha): 40
Soybean plant response rating (soybean [14]; [24]): 40
Plant response rating, Soybean (soybean [14]; [25]): 40
Plant response rating, Blackgrass (blackgrass [15]; 500 g ai/ha, postemergence): 70
Plant response rating, Blackgrass (blackgrass [15]; Postemergence, 125 g ai/ha): 10
Ragweed plant response rating (ragweed [16]; [24]): 70
Plant response rating, Ragweed (ragweed [16]; [25]): 20
Plant response rating, Pigweed, Palmer (pigweed, palmer [17]; 500 g ai/ha, postemergence): 100
Plant response rating, Pigweed, Palmer (pigweed, palmer [17]; Postemergence, 125 g ai/ha): 90
Plant response rating, Foxtail, Green (green foxtail [18]; 500 g ai/ha, postemergence): 90
Plant response rating, Foxtail, Green (green foxtail [18]; Postemergence, 125 g ai/ha): 60
Blackgrass plant response rating (blackgrass [19]; [24]): 80
Plant response rating, Blackgrass (blackgrass [19]; [25]): 60
Plant response rating, Horseweed (horseweed; 500 g ai/ha, postemergence): 60
Plant response rating, Horseweed (horseweed; Postemergence, 125 g ai/ha): 0
Pigweed, Palmer plant response rating (pigweed, palmer [20]; [24]): 100
Plant response rating, Pigweed, Palmer (pigweed, palmer [20]; [25]): 100
Plant response rating, Rice (Flood) (rice): 0
Plant response rating, Soybean (soybean [21]; 500 g ai/ha, postemergence): 100
Plant response rating, Soybean (soybean [21]; Postemergence, 125 g ai/ha): 100
Corn plant response rating (corn [22]; [24]): 10
Plant response rating, Corn (corn [22]; [25]): 10
Plant response rating, Galium (galium; 500 g ai/ha, postemergence): 100
Plant response rating, Galium (galium; Postemergence, 125 g ai/ha): 100
Plant response rating, Ragweed (ragweed [23]; 500 g ai/ha, postemergence): 70
Plant response rating, Ragweed (ragweed [23]; Postemergence, 125 g ai/ha): 50
